Experimental data reported in ChEMBL document CHEMBL1157891, “Methylene amine substituted arylindenopyrimidines as potent adenosine A(2A)/A(1) antagonists” (Bioorg Med Chem Lett, 2010).
pKi: −log10 of the molar value. Calls of active or inactive are those of the source. No cut-off for these calls is given here.

Experiments:
Mus musculus [1] = assay: Inhibition of haloperidol-induced catalepsy in mouse at 10 mg/kg, po; format: functional, organism-based; design: dose 10 mg/kg
Adenosine receptor A1 = molecular target: T1, Adenosine receptor A1 (Homo sapiens, UniProt P30542); assay: Antagonist activity at adenosine A1 receptor; format: functional
T1 sequence (P30542 whole entry): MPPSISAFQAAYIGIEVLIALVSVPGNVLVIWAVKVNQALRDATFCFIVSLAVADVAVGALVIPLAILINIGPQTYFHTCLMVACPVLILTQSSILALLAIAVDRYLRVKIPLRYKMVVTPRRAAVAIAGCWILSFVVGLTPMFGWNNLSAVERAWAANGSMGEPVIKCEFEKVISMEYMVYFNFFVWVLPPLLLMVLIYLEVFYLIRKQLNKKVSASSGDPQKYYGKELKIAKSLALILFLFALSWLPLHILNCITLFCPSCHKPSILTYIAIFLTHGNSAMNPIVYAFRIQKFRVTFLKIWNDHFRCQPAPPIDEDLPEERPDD

Adenosine receptor A2a = Adenosine receptor A2a (Homo sapiens, UniProt P29274); assay: Antagonist activity at adenosine A2A receptor; format: functional
Adenosine receptor A2a, sequence (P29274 whole entry): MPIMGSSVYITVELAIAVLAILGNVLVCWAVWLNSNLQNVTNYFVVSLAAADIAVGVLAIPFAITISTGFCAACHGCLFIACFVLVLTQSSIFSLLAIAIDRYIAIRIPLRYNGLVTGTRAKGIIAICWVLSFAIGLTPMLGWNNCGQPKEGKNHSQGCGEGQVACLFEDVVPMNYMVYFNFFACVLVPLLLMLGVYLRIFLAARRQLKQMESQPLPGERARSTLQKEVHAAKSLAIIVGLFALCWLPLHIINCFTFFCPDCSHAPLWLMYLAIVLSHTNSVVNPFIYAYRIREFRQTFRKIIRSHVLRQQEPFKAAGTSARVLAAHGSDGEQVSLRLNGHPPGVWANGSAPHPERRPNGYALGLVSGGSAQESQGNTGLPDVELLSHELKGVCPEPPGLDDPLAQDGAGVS

Mus musculus [2] = assay: Inhibition of haloperidol-induced catalepsy in po dosed mouse; format: functional
[3] = Mutagenic activity in Salmonella Typhimurium by Ames assay; format: toxicity; details: salmonella enterica subsp. enterica serovar typhimurium

Row | Compound | inhibition (Mus musculus [1]) | pKi (Adenosine receptor A1) | pKi (Adenosine receptor A2a) | ED50 (Mus musculus [2]) [mg/kg] | Activity [3]
1 | Nc1nc(-c2ccncc2)c2c(n1)-c1ccccc1C2=O | inactive | – | – | – | –
2 | Nc1nc(-c2ccc(Cl)o2)c2c(n1)-c1ccccc1C2=O | inactive | 9.30 | 9.70 | – | –
3 | Nc1nc(-c2ccccc2)c2c(n1)-c1c(CN3CCOCC3)cccc1C2=O | – | 7.48 | 8.48 | 5.6 | –
4 | Nc1nc(-c2ccccc2)c2c(n1)-c1c(CN3CCCC3)cccc1C2=O | – | 6.94 | 8.60 | 3.8 | –
5 | COc1cccc(-c2nc(N)nc3c2C(=O)c2ccccc2-3)c1 | inactive | 8.60 | 8.80 | – | Non-toxic
6 | Nc1nc(-c2ccccc2)c2c(n1)-c1c(CN3CCCCCC3)cccc1C2=O | inactive | 7.02 | 8.07 | – | –
7 | CN(C)CCN(C)Cc1cccc2c1-c1nc(N)nc(-c3ccccc3)c1C2=O | inactive | 6.92 | 7.40 | – | –
8 | CC1CCC(C)N1Cc1cccc2c1-c1nc(N)nc(-c3ccccc3)c1C2=O (stereo unspecified) | inactive | 6.85 | 7.95 | – | –
9 | CN(C)CCN(C)Cc1ccc2c(c1)-c1nc(N)nc(-c3ccccc3)c1C2=O | – | 7.70 | 8.11 | – | –
10 | CN1CCN(Cc2ccc3c(c2)-c2nc(N)nc(-c4ccc(F)cc4)c2C3=O)CC1 | – | 6.65 | 7.53 | 3.5 | –
11 | CN(C)CCN(C)c1ccc(-c2nc(N)nc3c2C(=O)c2ccccc2-3)o1 | – | 7.40 | 7.98 | 17.1 | Non-toxic
12 | Nc1nc(-c2ccc(F)cc2)c2c(n1)-c1cc(CN3CCCCC3)ccc1C2=O | – | 7.02 | 8.00 | 0.6 | –
13 | Nc1nc(-c2nccs2)c2c(n1)-c1ccccc1C2=O | inactive | – | 9.30 | – | –
14 | Nc1nc(-c2ccc(F)cc2)c2c(n1)-c1c(CN3CCOCC3)cccc1C2=O | – | 6.81 | 8.42 | 1.3 | –
15 | Nc1nc(-c2ccccc2)c2c(n1)-c1c(CN3CCCCC3)cccc1C2=O | – | 7.39 | 7.84 | 5 | –
16 | Nc1nc(-c2ccc(F)cc2)c2c(n1)-c1c(CN3CCCC3)cccc1C2=O | – | 7.07 | 8.44 | 0.8 | –
17 | COc1ccccc1-c1nc(N)nc2c1C(=O)c1ccccc1-2 | inactive | – | – | – | Non-toxic
18 | Nc1nc(-c2ccc(Cl)cc2)c2c(n1)-c1ccccc1C2=O | inactive | – | – | – | Non-toxic
19 | Nc1nc(-c2ccccc2)c2c(n1)-c1ccccc1C2=O | – | 8.96 | – | 8 | Non-toxic
20 | N#Cc1cccc(-c2nc(N)nc3c2C(=O)c2cccc(CN4CCOCC4)c2-3)c1 | – | 7.12 | 8.27 | 1.7 | –
21 | CCN(CC)Cc1cccc2c1-c1nc(N)nc(-c3ccccc3)c1C2=O | inactive | 6.97 | 7.74 | – | –
22 | Nc1nc(-c2ccc(F)cc2)c2c(n1)-c1cc(CN3CCCC3)ccc1C2=O | – | 7.18 | 7.89 | 1.6 | –
23 | Nc1nc(-c2ccco2)c2c(n1)-c1ccccc1C2=O | – | 9.40 | – | 5 | Toxic
24 | CN1CCN(Cc2cccc3c2-c2nc(N)nc(-c4ccccc4)c2C3=O)CC1 | – | 7.03 | 7.95 | 7.8 | –
25 | CC(=O)N1CCN(Cc2cccc3c2-c2nc(N)nc(-c4ccccc4)c2C3=O)CC1 | – | 7.47 | 8.10 | 10.7 | –
